Data set [1] is described as follows: Rat liver microsome stability assay. In kind it is in vitro ADME. Conditions: liver microsomes, pH 7.4, rat liver microsome 1 mg/ml, test compound 2 μM, NADPH 1 mM, 37° C. A general note: Liver microsomes are a subcellular fraction often used to study metabolism.
Data set [2] addresses FTO (Homo sapiens, UniProt Q9C0B1). In words: demethylation reaction catalyzed by FTO (enzymatic inhibition, HPLC-MS/MS of N6-mA and A). In kind it is biochemical.
Data set [3] relates to COMT enzyme. Kind of data set: COMT inhibition assay (reaction kinetic model, esculetin fluorescence). Type of data set: biochemical. Conditions: normalized COMT/FTO value: (COMTcompound/FTOcompound)/(COMTentacapone/FTOentacapone).
For data set [4], the target named is T1, COMT enzyme (Homo sapiens, UniProt P21964).
T1 construct: COMT (μM); other: at 200 nM; other: at 50 nM; The reaction system contains 1U COMT enzyme, test article, 4 μM Esculetin, 0.6 mM AdoMet, 50 mM K3PO4, and 10 mM MgCl2
T1 sequence (P21964 1-271): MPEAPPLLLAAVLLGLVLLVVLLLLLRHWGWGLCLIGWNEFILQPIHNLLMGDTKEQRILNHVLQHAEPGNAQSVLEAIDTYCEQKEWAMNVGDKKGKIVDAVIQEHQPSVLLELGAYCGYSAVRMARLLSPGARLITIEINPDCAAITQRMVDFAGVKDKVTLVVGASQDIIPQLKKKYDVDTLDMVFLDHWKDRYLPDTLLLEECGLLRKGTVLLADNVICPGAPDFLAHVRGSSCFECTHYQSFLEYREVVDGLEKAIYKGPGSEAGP
The description is as above. In kind it is biochemical. Conditions: for inhibition at 0.05 µM: read-out: COMT inhibition at 50 nM; for inhibition at 0.2 µM: read-out: COMT inhibition at 200 nM.

[5] abbreviates: read-out: Rat Liver Microsome CLint (μL/min/mg protein).
Where [6] appears, read: read-out: Rat Liver Microsome T½.
The mark [7] stands for this setting: exemplary IC50 data of representative compounds, read-out: Enzymatic inhibition (IC50).
Where [8] appears, read: selectivity table, read-out: FTO.

Read-outs that look alike come from different tables or passages of the source.

FTO, sequence (Q9C0B1 whole entry): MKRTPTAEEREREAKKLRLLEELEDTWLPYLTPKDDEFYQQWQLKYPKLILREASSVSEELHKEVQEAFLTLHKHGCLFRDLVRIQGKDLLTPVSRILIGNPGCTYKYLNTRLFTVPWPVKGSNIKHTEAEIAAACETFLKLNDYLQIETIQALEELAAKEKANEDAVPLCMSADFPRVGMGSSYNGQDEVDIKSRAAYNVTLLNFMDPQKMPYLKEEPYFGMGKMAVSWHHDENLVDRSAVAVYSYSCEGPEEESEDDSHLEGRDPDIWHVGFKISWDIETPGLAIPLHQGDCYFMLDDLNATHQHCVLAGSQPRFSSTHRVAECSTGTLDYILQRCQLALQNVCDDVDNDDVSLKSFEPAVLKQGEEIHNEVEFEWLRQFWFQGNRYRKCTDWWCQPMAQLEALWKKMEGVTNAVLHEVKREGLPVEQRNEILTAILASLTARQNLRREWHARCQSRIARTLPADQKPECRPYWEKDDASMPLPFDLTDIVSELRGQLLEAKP

Turning to `N#C/C(=C(/O)c1cc(O)c(O)c([N+](=O)[O-])c1)c1cnccn1` [Compound 523, 3-(3,4-dihydroxy-5-nitrophenyl)-3-hydroxy-2-(pyrazin-2-yl)acrylonitrile], the microsomal CLint at 1 h, 2 µM in data set [1] (setting [5]) turned out to be 2.9 µL/min/mg. Besides, the half-life at 1 h, 2 µM in data set [1] (setting [6]) stood at 3.98 h. In addition, the results for the IC50 in data set [2] (setting [7]), in data set [2] (setting [8]) and in data set [4] were less than 1000 nM, 500 nM and 105 nM, respectively. Besides, the “Selectivity Index*” value in data set [3] amounted to 10.50.

Turning to `N#C/C(=C\c1cc(O)c(O)c([N+](=O)[O-])c1)c1cnccn1` [Compound 396], the microsomal CLint at 1 h, 2 µM in data set [1] (setting [5]) stood at 20.9 µL/min/mg. The half-life at 1 h, 2 µM in data set [1] (setting [6]) stood at 0.553 h. The IC50 was less than 1000 nM in data set [2] (setting [7]), 250 nM in data set [2] (setting [8]) and 108 nM in data set [4]. Besides, in data set [3], the “Selectivity Index*” value was found to be 21.60.

Turning to `N#C/C(C(=O)N1CCC1)=C(/O)c1cc(O)c(O)c([N+](=O)[O-])c1` [Compound 701, (Z)-2-(azetidine-1-carbonyl)-3-(3,4-dihydroxy-5-nitrophenyl)-3-hydroxyacrylonitrile], the values for the IC50 in data set [2] (setting [7]), in data set [2] (setting [8]) and in data set [4] were less than 1000 nM, 750 nM and 3560 nM, respectively. In data set [3], the “Selectivity Index*” value amounted to 237.33.

For `N#C/C(=C\c1cc(O)c(O)c([N+](=O)[O-])c1)c1cnc(C(=O)O)cn1` [Compound 655, (Z)-5-(1-cyano-2-(3,4-dihydroxy-5-nitrophenyl)vinyl)pyrazine-2-carboxylic Acid], the microsomal CLint at 1 h, 2 µM in data set [1] (setting [5]) is 1.6 µL/min/mg. In data set [1] (setting [6]), the half-life at 1 h, 2 µM is 7.22 h. The figures for the IC50 in data set [2] (setting [7]), in data set [2] (setting [8]) and in data set [4] were less than 1000 nM, 300 nM and 24 nM, respectively. In addition, the “Selectivity Index*” value in data set [3] stood at 4.00.

Regarding `CCN(CC)C(=O)C(C#N)=C(NC)c1cc(O)c(O)c([N+](=O)[O-])c1` [Compound 347M, 2-cyano-3-(3,4-dihydroxy-5-nitrophenyl)-N,N-diethyl-3-(methylamino)acrylamide], the microsomal CLint at 2 μM in data set [1] (setting [5]) is 12.2 µL/min/mg. For the same compound, the half-life at 2 μM in data set [1] (setting [6]) is 0.947 h. The IC50 in data set [2] (setting [7]) was approximately 1000 nM; in data set [2] (setting [8]), 1000 nM; in data set [4] it was 162 nM. The “Selectivity Index*” value in data set [3] is on record as 8.10.

With `CCN(CC)C(=O)/C(C#N)=C(\N)c1cc(O)c(O)c([N+](=O)[O-])c1` [Compound 347N], the microsomal CLint at 1 h, 2 µM in data set [1] (setting [5]) was 4.9 µL/min/mg. For the same compound, in data set [1] (setting [6]), the half-life at 1 h, 2 µM turned out to be 2.35 h. For the same compound, the IC50 in data set [2] (setting [7]) was less than 1000 nM; in data set [2] (setting [8]), 500 nM; in data set [4], 214 nM. In data set [3], the “Selectivity Index*” value is listed as 21.40.

By inhibition is commonly meant the drop in the measured response relative to a control, in per cent. Consider `N#C/C(=C\c1cc(O)c(O)c([N+](=O)[O-])c1)c1ccncn1` [Compound 395, 3-(3,4-dihydroxy-5-nitrophenyl)-2-(pyrimidin-4-yl)acrylonitrile], for which the microsomal CLint at 1 h, 2 µM in data set [1] (setting [5]) was found to be 12.6 µL/min/mg. In addition, in data set [1] (setting [6]), the half-life at 1 h, 2 µM was determined as 0.917 h. The IC50 was less than 1000 nM in data set [2] (setting [7]) and 500 nM in data set [2] (setting [8]). Further, the inhibition at 0.05 µM in data set [4] is 36%. In addition, the inhibition at 0.2 µM in data set [4] worked out at 74%.

Regarding `N#C/C(=C\c1cc(O)c(O)c([N+](=O)[O-])c1)C(=O)Nc1nccs1` [Compound 331, (E)-2-cyano-3-(3,4-dihydroxy-5-nitrophenyl)-N-(thiazol-2-yl)acrylamide], in data set [1] (setting [5]), the microsomal CLint at 1 h, 2 µM came out at 7.4 µL/min/mg. In addition, in data set [1] (setting [6]), the half-life at 1 h, 2 µM came to 1.56 h. Further, the IC50 was approximately 1000 nM in data set [2] (setting [7]) and 1000 nM in data set [2] (setting [8]). The inhibition at 0.05 µM in data set [4] is 25%. Moreover, in data set [4], the inhibition at 0.2 µM turned out to be 54%.

Regarding `N#C/C(C(=O)Nc1nccs1)=C(/O)c1cc(O)c(O)c([N+](=O)[O-])c1` [Compound 374, 2-cyano-3-(3,4-dihydroxy-5-nitrophenyl)-3-oxo-N-(thiazol-2-yl)propanamide], the microsomal CLint at 1 h, 2 µM in data set [1] (setting [5]) amounted to 0.6 µL/min/mg. Also, the half-life at 1 h, 2 µM in data set [1] (setting [6]) is 19.2 h. Also, the IC50 in data set [2] (setting [7]) was less than 1000 nM; in data set [2] (setting [8]) it was 500 nM; in data set [4], 65 nM. Further, the “Selectivity Index*” value in data set [3] was 6.50.

(Values after patent publication US10988440B2, “FTO inhibitors” (National Institute of Biological Sciences, Beijing, priority 2015, dated 2021).)
